Reference: ChEMBL document CHEMBL3526027, “Pharmacokinetics, metabolism, and excretion of the antidiabetic agent ertugliflozin (PF-04971729) in healthy male subjects” (Drug Metab Dispos, 2013)

How the values were obtained:
Plasma [1] = assay: Drug level in Sprague-Dawley rat plasma treated with [14C]-ertugliflozin at 25 mg/kg, po; assay type: ADME, organism-based; parameters: dose 25 mg/kg, route oral; settings: in vivo
Liver microsome [2] = assay: Metabolic stability in human liver microsomes assessed as retention time treated with 10 µM ertugliflozin by HPLC analysis
[3] = Drug excretion in healthy human urine treated with [14C]-ertugliflozin at 25 mg, po by HPLC-radiocardiogram analysis; assay type: ADME, organism-based; settings: in vivo
[4] = Drug level in bile duct-cannulated rat bile treated with [14C]-ertugliflozin at 25 mg/kg, po; assay type: ADME, organism-based; parameters: dose 25 mg/kg, route oral; settings: in vivo
Plasma [5] = assay: Drug metabolism in healthy human plasma treated with [14C]-ertugliflozin at 25 mg, po by HPLC-radiocardiogram analysis; assay type: ADME, organism-based; settings: in vivo
Homo sapiens [6] = assay: Total drug excretion in healthy human treated with [14C]-ertugliflozin at 25 mg, po by HPLC-radiocardiogram analysis; assay type: ADME, organism-based; settings: in vivo
[7] = Drug level in bile duct-cannulated dog bile treated with [14C]-ertugliflozin at 10 mg/kg, po; assay type: ADME, organism-based, Canis lupus familiaris; parameters: dose 10 mg/kg, route oral; settings: in vivo
Plasma [8] = assay: Drug level in beagle dog plasma treated with [14C]-ertugliflozin at 10 mg/kg, po; assay type: ADME, organism-based, Canis lupus familiaris; parameters: dose 10 mg/kg, route oral; settings: in vivo
Plasma [9] = assay: Drug metabolism in beagle dog plasma assessed as ertugliflozin-3-O-beta-glucuronide level at 10 mg/kg, po; assay type: ADME, organism-based, Canis lupus familiaris; parameters: dose 10 mg/kg, route oral; settings: in vivo
Plasma [10] = assay: Drug metabolism in beagle dog plasma assessed as ertugliflozin-4-O-beta-glucuronide level at 10 mg/kg, po; assay type: ADME, organism-based, Canis lupus familiaris; parameters: dose 10 mg/kg, route oral; settings: in vivo
Liver microsome [11] = assay: Metabolic stability in human liver microsomes assessed as retention time at 10 uM by HPLC analysis; settings: in vitro
Plasma [12] = assay: Drug metabolism in Sprague-Dawley rat plasma assessed as ertugliflozin-3-O-beta-glucuronide level at 25 mg/kg, po; assay type: ADME, organism-based; parameters: dose 25 mg/kg, route oral; settings: in vivo
Plasma [13] = assay: Drug metabolism in Sprague-Dawley rat plasma assessed as ertugliflozin-4-O-beta-glucuronide level at 25 mg/kg, po; assay type: ADME, organism-based; parameters: dose 25 mg/kg, route oral; settings: in vivo
[14] = Drug recovery in beagle dog feces assessed as ertugliflozin-4-O-beta-glucuronide level at 10 mg/kg, po; assay type: ADME, organism-based, Canis lupus familiaris; parameters: dose 10 mg/kg, route oral; settings: in vivo
[15] = Drug recovery in Sprague-Dawley rat feces treated with [14C]-ertugliflozin at 25 mg/kg, po; assay type: ADME, organism-based; parameters: dose 25 mg/kg, route oral; settings: in vivo
[16] = Drug excretion in healthy human feces treated with [14C]-ertugliflozin at 25 mg, po by HPLC-radiocardiogram analysis; assay type: ADME, organism-based; settings: in vivo
[17] = Drug recovery in beagle dog feces treated with [14C]-ertugliflozin at 10 mg/kg, po; assay type: ADME, organism-based, Canis lupus familiaris; parameters: dose 10 mg/kg, route oral; settings: in vivo
[18] = Tmax in healthy human at 25 mg, po; assay type: ADME, organism-based; settings: in vivo
[19] = Drug level in bile duct-cannulated rat bile at 25 mg/kg, po; assay type: ADME, organism-based; parameters: dose 25 mg/kg, route oral; settings: read-out: Drug uptake
[20] = Drug level in bile duct-cannulated dog bile at 10 mg/kg, po; assay type: ADME, organism-based, Canis lupus familiaris; parameters: dose 10 mg/kg, route oral; settings: read-out: Drug uptake
[21] = AUC (0 to last) in healthy human at 25 mg, po; assay type: ADME, organism-based; parameters: dose 25 mg, time 0 - last, route oral; settings: plasma
[22] = Cmax in healthy human at 25 mg, po; assay type: ADME, organism-based; parameters: dose 25 mg, route oral; settings: in vivo
[23] = Drug metabolism in healthy human plasma at 25 mg, po by HPLC-radiocardiogram analysis; assay type: ADME, organism-based; settings: read-out: Drug metabolism
Homo sapiens [24] = assay: AUC (0 to infinity) in healthy human at 25 mg, po; assay type: ADME, organism-based, Plasma; parameters: dose 25 mg, time infinity, route oral; settings: in vivo
[25] = Oral bioavailability in Sprague-Dawley rat at 2 mg/kg; assay type: ADME, organism-based; settings: in vivo
[26] = Terminal half life in healthy human at 25 mg, po; assay type: ADME, organism-based; settings: in vivo, read-out: beta t1/2 (converted)
[27] = Terminal elimination half life in human at 0.5 to 300 mg, po; assay type: ADME, organism-based; settings: in vivo, read-out: beta t1/2 (converted)
[28] = Total drug excretion in healthy human at 25 mg, po by HPLC-radiocardiogram analysis; assay type: ADME, organism-based; settings: in vivo, read-out: Drug excretion
[29] = Oral bioavailability in beagle dog at 2 mg/kg; assay type: ADME, organism-based, Canis lupus familiaris; settings: in vivo

| Drug metabolism (Plasma [1]) | Retention_time (Liver microsome [2]) | Drug excretion [3] | Drug metabolism (Plasma [5]) | Drug excretion (Homo sapiens [6]) | Drug metabolism (Plasma [8]) | Retention_time (Liver microsome [11]) | Drug excretion [16] | Drug recovery [17] | SMILES | other results |
| --- | --- | --- | --- | --- | --- | --- | --- | --- | --- | --- |
| metabolite_detected | 34.3 min | 31.7% | 24.1% | 31.7% | metabolite_detected |  |  |  | CCOc1ccc(Cc2cc([C@]34OC[C@](CO)(O3)[C@@H](O)[C@H](O[C@@H]3O[C@H](C(=O)O)[C@@H](O)[C@H](O)[C@H]3O)[C@H]4O)ccc2Cl)cc1 | Drug uptake [4]: 16.5%; Drug uptake [7]: 39.2% |
| metabolite_detected | 29.4 min | 5.7% | 12.2% | 5.7% | metabolite_detected |  |  |  | CCOc1ccc(Cc2cc([C@]34OC[C@](CO)(O3)[C@@H](O)[C@H](O)[C@H]4O[C@@H]3O[C@H](C(=O)O)[C@@H](O)[C@H](O)[C@H]3O)ccc2Cl)cc1 |  |
|  |  |  |  |  |  | 36.4 min |  |  | CCOc1ccc(Cc2cc([C@]34OC[C@](CO)(O3)[C@@H](O)[C@H](O)[C@H]4O)ccc2Cl)cc1 [ERTUGLIFLOZIN] | Tmax [18]: 1 h; dose excreted [19]: 2.4%; dose excreted [20]: 9.6%; AUC(0-t) [21]: 2790 ng·h/mL; Cmax [22]: 490 ng/mL; metabolised [23]: 49.9%; AUC (Homo sapiens [24]): 2800 ng·h/mL; bioavailability [25]: 69%; half-life [26]: 16.9 h; half-life [27]: 11 h; dose excreted [28]: 35.3%; bioavailability [29]: 94% |

Second part, the compound before the results:

| SMILES | Drug metabolism (Plasma [1]) | Retention_time (Liver microsome [2]) | Drug excretion [3] | Drug metabolism (Plasma [5]) | Drug excretion (Homo sapiens [6]) | Drug metabolism (Plasma [8]) | Retention_time (Liver microsome [11]) | Drug excretion [16] | Drug recovery [17] | other results |
| --- | --- | --- | --- | --- | --- | --- | --- | --- | --- | --- |
| CCO[14c]1[14cH][14cH][14c](Cc2cc([C@]34OC[C@](CO)(O3)[C@@H](O)[C@H](O)[C@H]4O)ccc2Cl)[14cH][14cH]1.O=C1CC[C@@H](C(=O)O)N1 |  |  |  |  |  |  | 36.4 min |  |  | Drug metabolism (Plasma [9]): metabolite_detected; Drug metabolism (Plasma [10]): metabolite_detected; Drug metabolism (Plasma [12]): metabolite_detected; Drug metabolism (Plasma [13]): metabolite_detected; Drug recovery [14]: metabolite_not_detected |
| OC[C@@]12CO[C@@](c3ccc(Cl)c(Cc4ccc(O)cc4)c3)(O1)[C@H](O)[C@@H](O)[C@@H]2O |  | 27.2 min | 0.4% | 1.3% | 1.4% |  |  | 1% | 8.7% | Drug recovery [15]: 26.7% |
| CCOc1ccc(C(O)c2cc([C@]34OC[C@](CO)(O3)[C@@H](O)[C@H](O)[C@H]4O)ccc2Cl)cc1 (mixture of isomers) |  | 27.9 min | 0.7% | 2.5% | 2.4% |  |  | 1.7% | 7.1% |  |
